Measurements reported in patent publication US6407141B1 (priority 1995, dated 2002).

Tests used:
melanoma (mouth tumor) = assay: case study, Irish Setter with melanoma, oxalic acid diet and food additive; assay type: in vivo, canine; settings: eleven month period; diet, then oxalic acid dihydrate 1 gram down to 20 mg per day in food
[1] = tested on: bone cancer (sarcoma) of the left hind leg; assay: case study, Doberman pincher with bone cancer, oxalic acid enhanced dogfood; assay type: in vivo, dog
Excerpt: In accordance with another case study, a Doberman […] diagnosed with bone cancer (sarcoma) of the left hind leg. The dog had previously been put on medication for arthritis because it would not use or lower its left hind leg. […] A few days later, the dog began taking steps on the left hind leg with a slight limp.

[2] = case study, dog at a pound given oxalic acid dihydrate gel cap for seven days; assay type: in vivo; settings: one gram in a gel cap one hour prior to meal time for seven days
viral pneumonia = assay: mouthwash procedure in viral pneumonia; assay type: in vivo, human; settings: 150 mg in 300 ml of distilled water, rinse and gargle three times daily, Friday to Sunday; antibiotics also given
Method: Also, their spouse was diagnosed with viral pneumonia by X-ray examination. They were given antibiotics to ward off infections because of a weakened immune system. […] They started the recommended procedure of approximately 2 teaspoons of wash, holding in mouth for 2 minutes then gargle, spit out wash, then rinsing mouth at least twice with warm tap water. The procedure was repeated first thing in the morning immediately after rising and before anything else was put in mouth. It was done mid-day with nothing in mouth one hour prior to wash. At night, the procedure was repeated as the last item before retiring.

infected torn toenail = assay: soaking of poodle's infected paw in oxalic acid solution; assay type: in vivo, dog; settings: 150 mg in 300 ml of distilled water, after two soakings; antibiotic also given
Excerpt: On another occasion, the inventor's pet poodle had torn a toenail which became infected. The infection was in an advanced stage which was extremely sensitive and the poodle would not use the leg while walking. The poodle was examined by the veterinarian, received an injection of a antibiotic, and oral capsules were to be given.

[3] = FIG. 1; cited from earlier work
[4] = tested on: leukemia with tumors in lymph nodes; assay: case study, leukemia with tumors in lymph nodes; assay type: in vivo, human; settings: after 5-7 days; about 1 to 1 ½ g/day in dilute solution, almost no blockers
Excerpt: An adult was terminally ill with leukemia with tumors in their lymph nodes and they had stopped chemotherapy treatment. […] It was hard for them to swallow so they were on a liquid diet because of the swelling of the lymph nodes in and around their mouth and throat.

[5] = tested on: tarter or plaque, gums and mouth tissue; assay: daily use of dental hygiene composition by the inventor; assay type: in vivo, human; settings: 150 mg diluted in 300 ml of distilled water
Excerpt: The inventor continued to search for other uses of the “miracle bullet” oxalic acid or oxalate compositions for treating the body and immune system. […] There was no more occasional bleeding of the gums during daily brushing, and the surface of the tongue appeared to be more smooth with an even coloring across the surface.

[6] = tested on: cold, flu virus, sore throat; assay: mouth rinse and gargle case studies, cold, flu, sore throat; assay type: in vivo, human; settings: rinse two minutes and gargle three times a day for four days; two cases
Excerpt: On another occasion while visiting the veterinary clinic, the inventor noticed the receptionist had symptoms of a cold, and upon questioning the receptionist learned […] was treating a cold which was into the start of the second week. […] The inventor advised the receptionist that, each morning immediately upon rising, and prior to any other substance being put into the mouth, they should take approximately one teaspoon of the solution in their mouth, holding it for a minimum of two minutes, swishing the solution gently around the mouth, then discarding the solution and rinsing the mouth with warm water two or three times. The procedure began Friday night and the following Monday morning the cold was gone.
The dilute solution was the bench mark solution.
On still another occasion a pharmacist, consultant to the inventor, awoke at 2:30 a.m. with a very sore throat, unable to swallow without severe pain, remembered the inventor's description of their own experience, mixed two teaspoons of the bench mark mixture and two teaspoons of warm water, held the mixture in the mouth for two minutes and gargled well. After a 15-minute wait, repeated the procedure and then retired. Upon arising at 6:30 a.m., repeated the procedure one time before leaving for the pharmacy.

[7] = tested on: gingivitis, tarter and plaque; assay: daily brushing of dog's teeth with oxalic acid solution; assay type: in vivo; settings: 150 mg in 300 ml of distilled water, one week
Excerpt: At the completion of the exam, rather than treat the gingivitis with an injection of antibacterial medication followed by oral medication, it was agreed the inventor would commence daily brushing of the dog's teeth. […] The inventor began a daily brushing of the dog's teeth paying particular attention to the upper gums. The brushing was done first thing in the morning before the dog had anything to eat or drink. After the fourth day of brushing, the inventor/owner of the dog, noticed the redness of the gingivitis was disappearing and after one week returned the dog to the veterinarian for a follow-up exam. […] The veterinarian recommended cleaning one side of the dogs upper teeth and continuing with the daily brushing routine.

[8] = man; cited from earlier work
[9] = canine urine oxalate count; settings: about 1 gram per day intake; 25 Kilogram canine
[10] = tested on: fever, burning and irritation when urinating, back pain; assay: vitamin B6 pills for fever, urinary irritation, back pain attributed to oxalic acid; assay type: in vivo, human
Method: Then Turk's owner moved to Arkansas. His […], who is married and living nearby, worked at a local hospital. One day they began running a high fever in the range of 104° -106°, went home, and went straight to bed. The fever fell, and the next couple of days they returned to work only to have the fever return after a couple of hours. They went home and the cycle repeated. They mentioned this to a doctor in the emergency room and a series of tests were ordered looking for a virus, an infection, even a tubular conception. Turk's owner became involved, because after listening to long, sometimes whispered conversations between their spouse and stepdaughter, they asked what the trouble was. Their spouse explained what had happened and that the doctor was looking for some type of urinary tract or vaginal infection, but there were no positive cultures. […] Their stepdaughter was eating primarily salad bar meals loaded with oxalic acid.

low red blood cell count = assay: vitamin B6 pills in woman with low red blood cell count; assay type: in vivo, human; settings: 50 mg pills, one a day first week then every other day; three weeks
Excerpt: After retirement, Turk's owner was planning to move and some friends stopped by to visit. One evening while having cocktails with the friends, they began talking about health and age, etc. […] Turk's owner's research had paid off. They gave their organic gardening magazine to the person and urged them to read the article by Judith Benn Hurley. They explained to them that the reason their red cell count was low was because of their diet. […] Their diet contained items high in oxalic acid, like spinach, their favorite salad.

[11] = after dose reduced to about 1 gram, then about 500 mg per day

O=C(O)C(=O)O [oxalic acid dihydrate]
mouth tumor size (melanoma (mouth tumor)): reduced in size
pain and walking ([1]; after about 30 days on the oxalic acid diet): no pain during physical exam and was walking normally
X-ray, area affected by the sarcoma [1, 11]: decrease or reduction in the size of the area affected by the sarcoma
X-ray, bone material [1, 11]: increase in bone material in the area of the sarcoma
use of left hind leg ([1]; within 4 days, about 2 grams added to dry dogfood): lowered its left hind leg and used it frequently
adverse effects [2]: no adverse effects

O=C(O)C(=O)O [oxalic acid, ethanedioic acid]
effects of the viral pneumonia (viral pneumonia): nearly complete relief
infection of the paw (infected torn toenail): improved dramatically
stability of solutions to radiation [3]: decomposed by radiation
tumors in lymph nodes [4]: shrinkage of tumors in the lymph nodes
condition of gums and mouth tissue [5]: remarkable improvement
tarter or plaque in the mouth [5]: removal of and prevention of any build up of tarter or plaque
soreness of throat and nose, flu virus [6]: completely removes all soreness of throat and nose
gingivitis at follow-up exam [7]: no more evidence of gingivitis
tarter and plaque at follow-up exam [7]: no tarter but moderate plaque remained
death after ingestion, as early as [8]: 3 min
death after ingestion, as late as [8]: 14 days
level of oxalate in the urine [9]: ~22000 ng/mL

Cc1ncc(CO)c(CO)c1O.Cl [vitamin B6, pyridoxine hydrochloride]
symptoms ([10]; after the third day): all symptoms were gone
back pain without muscle or spine problems ([10]; other people): found relief
fever ([10]; two pills, one after twelve hours, then one a day, in two days): fever was gone
outcome, surgery delayed by low red cell count (low red blood cell count): doctor had just scheduled their operation
